ClCc1ccc(Cl)nc1
Details | solubility (mole fraction)
in acetone, 278.85 K | 0.0226
in acetone, 281.75 K | 0.0249
in acetone, 283.55 K | 0.0267
in acetone, 284.65 K | 0.0278
in acetone, 288.95 K | 0.0325
in acetone, 291.15 K | 0.0353
in acetone, 293.65 K | 0.0385
in acetone, 295.85 K | 0.0415
in acetone, 297.65 K | 0.0442
in acetone, 300.35 K | 0.0486
in acetone, 302.95 K | 0.0528
in acetone, 304.85 K | 0.0566
in acetone, 307.05 K | 0.0604
in chloroform, 275.85 K | 0.0164
in chloroform, 279.35 K | 0.0204
in chloroform, 281.55 K | 0.0235
in chloroform, 284.35 K | 0.028
in chloroform, 287.45 K | 0.0339
in chloroform, 290.35 K | 0.0405
in chloroform, 292.95 K | 0.0473
in chloroform, 295.25 K | 0.0546
in chloroform, 297.65 K | 0.063
in chloroform, 298.55 K | 0.0665
in chloroform, 300.45 K | 0.0745
in chloroform, 302.75 K | 0.0858
in chloroform, 306.95 K | 0.109
in ethanol, 277.65 K | 0.00332
in ethanol, 279.75 K | 0.00365
in ethanol, 282.05 K | 0.00406
in ethanol, 284.75 K | 0.00456
in ethanol, 287.35 K | 0.00521
in ethanol, 289.65 K | 0.00576
in ethanol, 292.65 K | 0.00661
in ethanol, 295.35 K | 0.00749
in ethanol, 298.35 K | 0.00859
in ethanol, 301.85 K | 0.0102
in ethanol, 304.15 K | 0.0112
in ethanol, 305.85 K | 0.012
in ethanol, 307.25 K | 0.0127
in ethyl acetate, 278.35 K | 0.00447
in ethyl acetate, 280.05 K | 0.00488
in ethyl acetate, 281.65 K | 0.0053
in ethyl acetate, 284.75 K | 0.00619
in ethyl acetate, 286.25 K | 0.00667
in ethyl acetate, 288.15 K | 0.00731
in ethyl acetate, 290.45 K | 0.00825
in ethyl acetate, 292.95 K | 0.00939
in ethyl acetate, 296.15 K | 0.011
in ethyl acetate, 299.05 K | 0.0125
in ethyl acetate, 302.95 K | 0.0153
in ethyl acetate, 305.35 K | 0.0167
in ethyl acetate, 306.45 K | 0.0176
in ethyl acetate, 307.45 K | 0.0184
in methanol, 277.25 K | 0.00235
in methanol, 281.35 K | 0.00277
in methanol, 282.75 K | 0.00296
in methanol, 284.35 K | 0.00319
in methanol, 288.85 K | 0.00392
in methanol, 292.75 K | 0.00468
in methanol, 296.05 K | 0.00537
in methanol, 299.25 K | 0.00607
in methanol, 303.75 K | 0.00722
in methanol, 305.35 K | 0.00768
in methanol, 306.55 K | 0.00803
in toluene, 278.75 K | 0.0191
in toluene, 281.55 K | 0.0249
in toluene, 283.25 K | 0.0293
in toluene, 287.35 K | 0.043
in toluene, 288.15 K | 0.0464
in toluene, 290.75 K | 0.059
in toluene, 292.15 K | 0.0671
in toluene, 293.75 K | 0.0776
in toluene, 295.45 K | 0.0906
in toluene, 297.75 K | 0.111
in toluene, 301.65 K | 0.158
in toluene, 305.55 K | 0.223
in water, 277.75 K | 0.000167
in water, 280.25 K | 0.000174
in water, 283.75 K | 0.000197
in water, 288.35 K | 0.000215
in water, 292.15 K | 0.000234
in water, 294.25 K | 0.000249
in water, 297.65 K | 0.000265
in water, 301.25 K | 0.000288
in water, 302.95 K | 0.000295
in water, 304.25 K | 0.000308
in water, 305.85 K | 0.00032
in water, 308.75 K | 0.000332
in water, 309.15 K | 0.00034
